Results reported in the supplement of paper PMC10307832.

What was measured:
Assay in all cases: relative viability (nuclei count vs DMSO), 5 days (fraction); higher = more cells survive
[1] = compound: C1=CC=C(C(=C1)C2=CC=C(C=C2)C3=CSC4=C3C(=C(C(=O)N4)C#N)O)O + N=C(N)NC(=N)NCCc1ccccc1 [Phenformin] (partner 250 µM)
Summary of the method: (§1)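 For relative viability, nuclei counts in treated wells were divided by those in vehicle wells. Lung cancer cell lines had been pin-tool dosed in 1536-well plates the day after seeding and cultured for 5 days, then fixed and stained in one step (final 0.05% Triton X-100, 1% formaldehyde, 1 ug/ml Hoechst) and imaged at 4×. Doses were one drug alone or a fixed anchor-drug dose plus five library-drug doses (not always all listed) in √10 steps, and values are duplicate-plate medians.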

[2] = compound: O=C(CCCCCCNC(=O)c1cnc(N(c2ccccc2)c2ccccc2)nc1)NO [Ricolinostat] + CC(C)C[C@H](NC(=O)[C@H](Cc1ccccc1)NC(=O)c1cnccn1)B(O)O [Bortezomib] (partner 0.002 µM)
Summary of the method: as §1

[3] = compound: C1=CC=C(C(=C1)C2=CC=C(C=C2)C3=CSC4=C3C(=C(C(=O)N4)C#N)O)O + C[C@@H](Oc1cc(-c2cnn(C3CCNCC3)c2)cnc1N)c1c(Cl)ccc(F)c1Cl [Crizotinib] (partner 1 µM)
Summary of the method: as §1

[4] = compound: CC1=CN2C(=O)C=C(N=C2C(=C1)C(C)NC3=CC=CC=C3)N4CCOCC4 [TGX 221] + Cc1nc(Nc2ncc(C(=O)Nc3c(C)cccc3Cl)s2)cc(N2CCN(CCO)CC2)n1 [Dasatinib] (partner 0.075 µM)
Summary of the method: as §1

Cell Line | relative viability ([1]; first compound 0.08 µM) | relative viability ([1]; first compound 0.253 µM) | relative viability ([1]; first compound 0.8 µM) | relative viability ([1]; first compound 2.53 µM) | relative viability ([1]; first compound 8 µM) | relative viability ([2]; first compound 0.253 µM) | relative viability ([2]; first compound 0.8 µM) | relative viability ([2]; first compound 2.53 µM) | relative viability ([3]; first compound 0.253 µM) | relative viability ([3]; first compound 0.8 µM) | relative viability ([3]; first compound 2.53 µM) | relative viability ([3]; first compound 8 µM) | relative viability ([4]; first compound 0.08 µM) | relative viability ([4]; first compound 0.253 µM) | relative viability ([4]; first compound 0.8 µM) | relative viability ([4]; first compound 2.53 µM) | relative viability ([4]; first compound 8 µM) | relative viability ([3]; first compound 0.08 µM) | relative viability ([2]; first compound 0.08 µM)
NCI-H661 | 0.31 | 0.298 | 0.257 | 0.254 | 0.298 | 0.743 | 0.997 | 1.19 | 1.11 | 0.94 | 1.07 | 0.952 | 0.945 | 0.831 | 0.803 | 0.876 | 0.828 | – | –
NCI-H520 | 0.254 | 0.535 | 0.757 | 0.542 | 0.467 | 0.609 | 0.414 | 0.103 | 1.03 | 0.78 | 0.981 | 0.524 | 0.215 | 0.202 | 0.156 | 0.16 | 0.159 | 0.517 | –
HCC-78 | 0.608 | 0.872 | 0.64 | 0.609 | 0.568 | 0.475 | 0.455 | 0.686 | 0.423 | 0.443 | 0.343 | 0.3 | 0.405 | 0.324 | 0.231 | 0.235 | 0.246 | 0.374 | –
NCI-H1666 | 0.578 | 0.739 | 0.547 | 0.532 | 0.484 | 0.97 | 0.724 | 0.579 | 1.15 | 0.731 | 0.769 | 1.03 | 0.81 | 0.756 | 0.778 | 0.739 | 0.753 | 0.914 | 0.598
EKVX | 0.226 | 0.259 | 0.233 | 0.221 | 0.216 | 1.03 | 1.16 | 0.83 | 1.06 | 0.824 | 1.36 | 0.803 | 0.399 | 0.523 | 0.432 | 0.493 | 0.365 | 0.947 | –
HARA | 0.323 | 0.542 | 0.433 | 0.431 | 0.425 | 1.02 | 1.1 | 0.638 | 1.51 | 1.1 | 1.05 | 0.842 | 0.207 | 0.254 | 0.289 | 0.26 | 0.315 | – | 1.05
A-427 | 0.234 | 0.313 | 0.315 | 0.328 | 0.31 | 0.998 | 0.933 | 0.736 | 1.08 | 0.998 | 1.05 | 0.988 | 0.696 | 0.735 | 0.671 | 0.657 | 0.692 | 0.905 | 0.89
NCI-H2087 | 0.441 | 0.481 | 0.464 | 0.366 | 0.362 | 0.54 | 0.806 | 0.456 | 1.04 | 0.914 | 1.02 | 0.825 | 1.02 | 0.75 | 0.646 | 0.9 | 0.993 | 0.845 | 0.895
NCI-H460 | 0.165 | 0.557 | 0.427 | 0.561 | 0.107 | 1.01 | 1.11 | 1 | 1.03 | 0.955 | 1.03 | 0.27 | 0.478 | 0.477 | 0.526 | 0.539 | 0.432 | – | 0.895
PC-14 | 0.489 | 0.676 | 0.561 | 0.555 | 0.355 | 0.844 | 0.872 | 0.692 | 0.859 | 0.869 | 1.02 | 0.907 | 0.246 | 0.22 | 0.3 | 0.272 | 0.221 | 0.851 | 0.812
NCI-H2009 | 0.443 | 0.505 | 0.457 | 0.496 | 0.387 | 0.979 | 0.93 | 0.763 | 1.03 | 1.01 | 1.04 | 0.955 | 0.254 | 0.199 | 0.228 | 0.213 | 0.177 | 0.916 | 0.834
COR-L 105 | 0.47 | 0.649 | 0.348 | 0.401 | 0.402 | 0.885 | 0.946 | 0.993 | 1.04 | 0.646 | 0.778 | 0.646 | 0.286 | 0.252 | 0.264 | 0.406 | 0.23 | 0.712 | 0.844
NCI-H1993 | 0.49 | 0.424 | 0.55 | 0.473 | 0.529 | 1 | 1.25 | 1.15 | 0.922 | 0.816 | 0.776 | 0.741 | 0.504 | 0.634 | 0.557 | 0.541 | 0.572 | 0.794 | 0.861
SW 1573 | 0.343 | 0.351 | 0.343 | 0.333 | 0.233 | 1.13 | 1.06 | 1.13 | 0.796 | 0.897 | 0.797 | 0.61 | 0.402 | 0.501 | 0.403 | 0.406 | 0.574 | 0.683 | 0.834
